Test results as given in ChEMBL document CHEMBL1201861, “Genomics of Drug Sensitity in Cancer screening data, Wellcome Trust Sanger Institute”.

Columns and labels:
[1] = system: CAL-54; assay: cells; type: functional, cell-based; details: Homo sapiens;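 further: growth inhibition of CAL-54 cells, read out by a viability measurement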
Description: SANGER: Inhibition of human CAL-54 cell growth in a cell viability assay.

[2] = system: NCI-H1623; assay: cells; type: functional, cell-based; details: Homo sapiens;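 further: cell viability assay used as the read-out for growth inhibition of NCI-H1623 cells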
Description: SANGER: Inhibition of human NCI-H1623 cell growth in a cell viability assay.

[3] = system: MDA-MB-415; assay: cells; type: functional, cell-based; details: Homo sapiens
[4] = system: HGC-27; assay: cells; type: functional, cell-based; details: Homo sapiens;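 further: growth inhibition of human HGC-27 cells, read out in a cell viability assay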
Description: SANGER: Inhibition of human HGC-27 cell growth in a cell viability assay.

[5] = system: CESS; assay: SANGER: Inhibition of human CESS cell growth in a cell viability assay.; type: functional, cell-based; details: Homo sapiens, CESS
[6] = system: G-361; assay: cells; type: functional, cell-based; details: Homo sapiens
[7] = system: MHH-CALL-2; assay: cells; type: functional, cell-based, Homo sapiens; details: Homo sapiens, MHH-CALL-2;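 further: growth inhibition of the cell line, read out in a cell viability assay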
Description: SANGER: Inhibition of human MHH-CALL-2 cell growth in a cell viability assay.

[8] = system: C3A; assay: cells; type: functional, cell-based; details: Homo sapiens;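 further: growth inhibition of C3A human cells, quantified with a cell viability readout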
Description: SANGER: Inhibition of human C3A cell growth in a cell viability assay.

[9] = system: NB12; assay: cells; type: functional, cell-based; details: Homo sapiens;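 further: growth inhibition of human NB12 cells, read out by a cell viability assay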
Description: SANGER: Inhibition of human NB12 cell growth in a cell viability assay.

[10] = system: ECC4; assay: cells; type: functional, cell-based, Homo sapiens; details: Homo sapiens, ECC4;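 further: growth inhibition of ECC4 cells, read out with a cell viability assay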
Description: SANGER: Inhibition of human ECC4 cell growth in a cell viability assay.

[11] = system: NCI-H727; assay: cells; type: functional, cell-based; details: Homo sapiens;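 further: growth inhibition of human NCI-H727 cells, read out with a cell viability assay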
Description: SANGER: Inhibition of human NCI-H727 cell growth in a cell viability assay.

[12] = system: CHL-1; assay: cells; type: functional, cell-based; details: Homo sapiens;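 further: cell growth inhibition, read out with a cell viability assay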
Description: SANGER: Inhibition of human CHL-1 cell growth in a cell viability assay.

[13] = system: AN3-CA; assay: cells; type: functional, cell-based; details: Homo sapiens;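 further: growth inhibition of human AN3-CA cells measured by a cell viability assay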
Description: SANGER: Inhibition of human AN3-CA cell growth in a cell viability assay.

[14] = system: SK-MEL-30; assay: cells; type: functional, cell-based; details: Homo sapiens;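 further: growth inhibition of SK-MEL-30 cells, determined with a cell viability assay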
Description: SANGER: Inhibition of human SK-MEL-30 cell growth in a cell viability assay.

[15] = system: NCI-H2122; assay: cells; type: functional, cell-based; details: Homo sapiens;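 further: growth inhibition of the cells, read out with a cell viability assay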
Description: SANGER: Inhibition of human NCI-H2122 cell growth in a cell viability assay.

[16] = system: UMUC3; assay: cells; type: functional, cell-based; details: Homo sapiens;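 further: growth inhibition of human UM-UC-3 cells, read out with a cell viability assay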
Description: SANGER: Inhibition of human UM-UC-3 cell growth in a cell viability assay.

[17] = system: COR-L279; assay: SANGER: Inhibition of human COR-L279 cell growth in a cell viability assay.; type: functional, cell-based; details: Homo sapiens, COR-L279
[18] = system: GAMG; assay: cells; type: functional, cell-based; details: Homo sapiens;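 further: cell growth inhibition measured by a viability assay in the GAMG human cell line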
Description: SANGER: Inhibition of human GAMG cell growth in a cell viability assay.

[19] = system: HCC38; assay: cells; type: functional, cell-based; details: Homo sapiens;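 further: cell viability assay on the human HCC38 cell line, with IC50 marking the concentration that inhibits cell growth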
Description: SANGER: Inhibition of human HCC38 cell growth in a cell viability assay.

[20] = system: TCC-SUP; assay: cells; type: functional, cell-based; details: Homo sapiens;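 further: growth inhibition of TCC-SUP cells, read out with a cell viability assay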
Description: SANGER: Inhibition of human TCCSUP cell growth in a cell viability assay.

[21] = system: SK-N-AS; assay: cells; type: functional, cell-based; details: Homo sapiens;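 further: growth inhibition of human SK-N-AS cells, measured with a cell viability assay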
Description: SANGER: Inhibition of human SK-N-AS cell growth in a cell viability assay.

[22] = system: SK-MEL-28; assay: cells; type: functional, cell-based; details: Homo sapiens;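 further: growth inhibition of human SK-MEL-28 cells, read out with a cell viability assay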
Description: SANGER: Inhibition of human SK-MEL-28 cell growth in a cell viability assay.

[23] = system: SNU-423; assay: cells; type: functional, cell-based; details: Homo sapiens
Description: SANGER: Inhibition of human SNU-423 cell growth in a cell viability assay.

[24] = system: RPMI 8402; assay: SANGER: Inhibition of human RPMI-8402 cell growth in a cell viability assay.; type: functional, cell-based; details: Homo sapiens, RPMI 8402
[25] = system: CAMA-1; assay: cells; type: functional, cell-based; details: Homo sapiens;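 further: growth inhibition of CAMA-1 cells, read out with a cell viability assay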
Description: SANGER: Inhibition of human CAMA-1 cell growth in a cell viability assay.

[26] = system: COLO-678; assay: cells; type: functional, cell-based; details: Homo sapiens
Description: SANGER: Inhibition of human COLO-678 cell growth in a cell viability assay.

[27] = system: HOP-92; assay: cells; type: functional, cell-based; details: Homo sapiens;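 further: cell viability readout, with IC50 reflecting inhibition of HOP-92 cell growth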
Description: SANGER: Inhibition of human HOP-92 cell growth in a cell viability assay.

[28] = system: SW948; assay: cells; type: functional, cell-based; details: Homo sapiens;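 further: growth inhibition of SW948 cells, read out with a cell viability assay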
Description: SANGER: Inhibition of human SW948 cell growth in a cell viability assay.

[29] = system: WM-115; assay: cells; type: functional, cell-based; details: Homo sapiens
Description: SANGER: Inhibition of human WM-115 cell growth in a cell viability assay.

[30] = system: ABC-1; assay: cells; type: functional, cell-based; details: Homo sapiens;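 further: growth inhibition of human ABC-1 cells, read out by a cell viability assay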
Description: SANGER: Inhibition of human ABC-1 cell growth in a cell viability assay.

[31] = system: SJRH30; assay: cells; type: functional, cell-based; details: Homo sapiens;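 further: growth inhibition of human SJRH30 cells, read out with a cell viability assay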
Description: SANGER: Inhibition of human SJRH30 cell growth in a cell viability assay.

[32] = system: DU-145; assay: cells; type: functional, cell-based; details: Homo sapiens
Description: SANGER: Inhibition of human DU-145 cell growth in a cell viability assay.

[33] = system: NCI-H1703; assay: cells; type: functional, cell-based; details: Homo sapiens;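 further: growth inhibition of NCI-H1703 cells, read out via a cell viability assay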
Description: SANGER: Inhibition of human NCI-H1703 cell growth in a cell viability assay.

[34] = system: EVSA-T; assay: cells; type: functional, cell-based, Homo sapiens; details: Homo sapiens, EVSA-T;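 further: growth inhibition of EVSA-T cells, read out with a cell viability assay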
Description: SANGER: Inhibition of human EVSA-T cell growth in a cell viability assay.

[35] = system: LC4-1; assay: cells; type: functional, cell-based, Homo sapiens; details: Homo sapiens, LC4-1;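 further: growth inhibition of LC4-1 cells, read out with a cell viability assay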
Description: SANGER: Inhibition of human LC4-1 cell growth in a cell viability assay.

[36] = system: EC-GI-10; assay: cells; type: functional, cell-based, Homo sapiens; details: Homo sapiens, EC-GI-10
Description: SANGER: Inhibition of human EC-GI-10 cell growth in a cell viability assay.

[37] = system: YT; assay: cells; type: functional, cell-based, Homo sapiens; details: Homo sapiens, YT
Description: SANGER: Inhibition of human YT cell growth in a cell viability assay.

[38] = system: SW1088; assay: cells; type: functional, cell-based; details: Homo sapiens;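 further: growth inhibition of human SW1088 cells, read out by a cell viability assay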
Description: SANGER: Inhibition of human SW1088 cell growth in a cell viability assay.

[39] = system: H4; assay: cells; type: functional, cell-based; details: Homo sapiens
Description: SANGER: Inhibition of human H4 cell growth in a cell viability assay.

[40] = system: CAL-72; assay: cells; type: functional, cell-based; details: Homo sapiens;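 further: cell viability assay measuring inhibition of proliferation in the CAL-72 cell line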
Description: SANGER: Inhibition of human CAL-72 cell growth in a cell viability assay.

[41] = system: UACC-62; assay: cells; type: functional, cell-based; details: Homo sapiens;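 further: growth inhibition of human UACC-62 cells, read out by a cell viability assay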
Description: SANGER: Inhibition of human UACC-62 cell growth in a cell viability assay.

[42] = system: Ca9-22; assay: cells; type: functional, cell-based; details: Homo sapiens;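 further: growth inhibition of Ca9-22 cells, read out with a cell viability assay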
Description: SANGER: Inhibition of human Ca9-22 cell growth in a cell viability assay.

[43] = system: MDA-MB-134-VI; assay: cells; type: functional, cell-based, Homo sapiens; details: Homo sapiens, MDA-MB-134-VI
Description: SANGER: Inhibition of human MDA-MB-134-VI cell growth in a cell viability assay.

[44] = system: NB1; assay: cells; type: functional, cell-based, Homo sapiens; details: Homo sapiens, NB1
Description: SANGER: Inhibition of human NB1 cell growth in a cell viability assay.

[45] = system: SiHa; assay: cells; type: functional, cell-based; details: Homo sapiens;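 further: Viability-based readout of growth inhibition in SiHa cells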
Description: SANGER: Inhibition of human SiHa cell growth in a cell viability assay.

[46] = system: HCC1599; assay: cells; type: functional, cell-based, Homo sapiens; details: Homo sapiens, HCC1599;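 further: growth inhibition of HCC1599 cells, read out in a cell viability assay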
Description: SANGER: Inhibition of human HCC1599 cell growth in a cell viability assay.

[47] = system: HCC1937; assay: cells; type: functional, cell-based; details: Homo sapiens;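 further: growth inhibition measured with a cell viability read-out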
Description: SANGER: Inhibition of human HCC1937 cell growth in a cell viability assay.

[48] = system: BHY; assay: cells; type: functional, cell-based; details: Homo sapiens;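 further: cell growth inhibition read out by a viability assay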
Description: SANGER: Inhibition of human BHY cell growth in a cell viability assay.

[49] = system: OE19; assay: cells; type: functional, cell-based; details: Homo sapiens;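 further: growth inhibition of OE19 cells, measured through a cell viability read-out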
Description: SANGER: Inhibition of human OE19 cell growth in a cell viability assay.

[50] = system: HTC-C3; assay: cells; type: functional, cell-based; details: Homo sapiens;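 further: inhibition of cell growth, read out with a cell viability assay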
Description: SANGER: Inhibition of human HTC-C3 cell growth in a cell viability assay.

[51] = system: KMS-12-PE; assay: cells; type: functional, cell-based, Homo sapiens; details: Homo sapiens, KMS-12-PE;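 further: growth inhibition of human KMS-12-PE cells, measured with a cell viability assay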
Description: SANGER: Inhibition of human KMS-12-PE cell growth in a cell viability assay.

[52] = system: CP66-MEL; assay: cells; type: functional, cell-based; details: Homo sapiens;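 further: growth inhibition of CP66-MEL cells determined in a cell viability assay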
Description: SANGER: Inhibition of human CP66-MEL cell growth in a cell viability assay.

[53] = system: LC-1F; assay: cells; type: functional, cell-based, Homo sapiens; details: Homo sapiens, LC-1F;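 further: growth inhibition of human LC-1F cells, read out with a cell viability assay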
Description: SANGER: Inhibition of human LC-1F cell growth in a cell viability assay.

[54] = system: NY; assay: cells; type: functional, cell-based; details: Homo sapiens
Description: SANGER: Inhibition of human NY cell growth in a cell viability assay.

[55] = system: SF-295; assay: cells; type: functional, cell-based; details: Homo sapiens;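 further: growth inhibition of SF-295 cells, read out with a cell viability assay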
Description: SANGER: Inhibition of human SF295 cell growth in a cell viability assay.

[56] = system: AGS; assay: cells; type: functional, cell-based; details: Homo sapiens;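 further: growth inhibition of AGS cells, determined with a cell viability assay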
Description: SANGER: Inhibition of human AGS cell growth in a cell viability assay.

[57] = system: NCI-H1573; assay: cells; type: functional, cell-based; details: Homo sapiens;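 further: growth inhibition of NCI-H1573 cells, read out with a cell viability assay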
Description: SANGER: Inhibition of human NCI-H1573 cell growth in a cell viability assay.

[58] = system: HSC-3; assay: cells; type: functional, cell-based; details: Homo sapiens
Description: SANGER: Inhibition of human HSC-3 cell growth in a cell viability assay.

[59] = system: HOS; assay: cells; type: functional, cell-based; details: Homo sapiens;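 further: growth inhibition of human HOS cells, read out with a cell viability assay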
Description: SANGER: Inhibition of human HOS cell growth in a cell viability assay.

[60] = system: SK-MEL-24; assay: cells; type: functional, cell-based; details: Homo sapiens;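 further: growth inhibition read out by a cell viability assay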
Description: SANGER: Inhibition of human SK-MEL-24 cell growth in a cell viability assay.

Structure (SMILES): COc1ccc(-c2cc3nccn3c(Nc3ncccc3C(N)=O)n2)cc1OC
- IC50 [1]: > 8 µM
- IC50 [2]: > 8 µM
- IC50 [3]: > 8 µM
- IC50 [4]: 2.7 µM
- IC50 [5]: 1.45 µM
- IC50 [6]: 4.3 µM
- IC50 [7]: > 8 µM
- IC50 [8]: 6.53 µM
- IC50 [9]: > 8 µM
- IC50 [10]: > 8 µM
- IC50 [11]: 6.15 µM
- IC50 [12]: 4.05 µM
- IC50 [13]: 4.66 µM
- IC50 [14]: > 8 µM
- IC50 [15]: 1.28 µM
- IC50 [16]: 7.41 µM
- IC50 [17]: 4.2 µM
- IC50 [18]: > 8 µM
- IC50 [19]: > 8 µM
- IC50 [20]: > 8 µM
- IC50 [21]: > 8 µM
- IC50 [22]: > 8 µM
- IC50 [23]: > 8 µM
- IC50 [24]: 1.77 µM
- IC50 [25]: > 8 µM
- IC50 [26]: > 8 µM
- IC50 [27]: > 8 µM
- IC50 [28]: > 8 µM
- IC50 [29]: > 8 µM
- IC50 [30]: > 8 µM
- IC50 [31]: > 8 µM
- IC50 [32]: 7.97 µM
- IC50 [33]: > 8 µM
- IC50 [34]: > 8 µM
- IC50 [35]: 5.98 µM
- IC50 [36]: > 8 µM
- IC50 [37]: 2.34 µM
- IC50 [38]: > 8 µM
- IC50 [39]: > 8 µM
- IC50 [40]: > 8 µM
- IC50 [41]: > 8 µM
- IC50 [42]: > 8 µM
- IC50 [43]: > 8 µM
- IC50 [44]: 1.71 µM
- IC50 [45]: > 8 µM
- IC50 [46]: 2.69 µM
- IC50 [47]: > 8 µM
- IC50 [48]: 2.81 µM
- IC50 [49]: > 8 µM
- IC50 [50]: > 8 µM
- IC50 [51]: > 8 µM
- IC50 [52]: > 8 µM
- IC50 [53]: > 8 µM
- IC50 [54]: > 8 µM
- IC50 [55]: > 8 µM
- IC50 [56]: > 8 µM
- IC50 [57]: > 8 µM
- IC50 [58]: > 8 µM
- IC50 [59]: 3.32 µM
- IC50 [60]: > 8 µM

Structure (SMILES): OC[C@H](Cc1ccccc1)Nc1nc(Oc2ccc3c(c2)CCC3)nc2c1ncn2Cc1ccc(-c2ccccc2)cc1
- IC50 [1]: > 10.2 µM
- IC50 [2]: > 10.2 µM
- IC50 [3]: > 10.2 µM
- IC50 [4]: 2.31 µM
- IC50 [5]: > 10.2 µM
- IC50 [6]: 2.06 µM
- IC50 [7]: > 10.2 µM
- IC50 [8]: > 10.2 µM
- IC50 [9]: > 10.2 µM
- IC50 [10]: > 10.2 µM
- IC50 [11]: > 10.2 µM
- IC50 [12]: > 10.2 µM
- IC50 [13]: > 10.2 µM
- IC50 [14]: 8.89 µM
- IC50 [15]: 2.72 µM
- IC50 [16]: > 10.2 µM
- IC50 [17]: > 10.2 µM
- IC50 [18]: > 10.2 µM
- IC50 [19]: > 10.2 µM
- IC50 [20]: > 10.2 µM
- IC50 [21]: > 10.2 µM
- IC50 [22]: > 10.2 µM
- IC50 [23]: > 10.2 µM
- IC50 [24]: > 10.2 µM
- IC50 [25]: 9.65 µM
- IC50 [26]: > 10.2 µM
- IC50 [27]: > 10.2 µM
- IC50 [28]: > 10.2 µM
- IC50 [29]: > 10.2 µM
- IC50 [30]: > 10.2 µM
- IC50 [31]: > 10.2 µM
- IC50 [32]: 7.86 µM
- IC50 [33]: > 10.2 µM
- IC50 [34]: > 10.2 µM
- IC50 [35]: > 10.2 µM
- IC50 [36]: > 10.2 µM
- IC50 [37]: > 10.2 µM
- IC50 [38]: > 10.2 µM
- IC50 [39]: 1.86 µM
- IC50 [40]: > 10.2 µM
- IC50 [41]: > 10.2 µM
- IC50 [42]: > 10.2 µM
- IC50 [43]: > 10.2 µM
- IC50 [44]: 9.3 µM
- IC50 [45]: > 10.2 µM
- IC50 [46]: > 10.2 µM
- IC50 [47]: > 10.2 µM
- IC50 [48]: 5.13 µM
- IC50 [49]: > 10.2 µM
- IC50 [50]: > 10.2 µM
- IC50 [51]: > 10.2 µM
- IC50 [52]: > 10.2 µM
- IC50 [53]: > 10.2 µM
- IC50 [54]: > 10.2 µM
- IC50 [55]: 3.23 µM
- IC50 [56]: 6.71 µM
- IC50 [57]: > 10.2 µM
- IC50 [58]: 3.88 µM
- IC50 [59]: 3.08 µM
- IC50 [60]: > 10.2 µM
